From PubChem BioAssay AID1963965 (Molecular Pharmacology Branch, DTP, NCI, 2024)
Blank lines part the entries; values can stand above or below the molecule they belong to.

Test system: 996289-038-R-J1-PDC spheroid viability
Assay: Anticancer human tumor 996289-038-R-J1-PDC patient-derived colon adenocarcinoma cell line growth inhibition [PI3K]
Conditions: spheroids with HUVEC and MSC; for IC50: curve of first compound; for viability, T/C: stronger effect = lower value
In short: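 Tumor cells were combined with HUVEC and MSCs into spheroids, then dosed with PI3K-inhibitor combinations over half-log ranges capped near clinical Cmax or 10 microM.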

[1] = second compound 0.00316 µM, first compound 0.0316 µM
[2] = second compound 0.00316 µM, first compound 0.1 µM
[3] = second compound 0.00316 µM, first compound 0.316 µM
[4] = second compound 0.00316 µM, first compound 1 µM
[5] = second compound 0.00316 µM, first compound 3.16 µM
[6] = second compound 0.00316 µM, first compound 10 µM
[7] = second compound 0.01 µM, first compound 0.0316 µM
[8] = second compound 0.01 µM, first compound 0.1 µM
[9] = second compound 0.01 µM, first compound 0.316 µM
[10] = second compound 0.01 µM, first compound 1 µM
[11] = second compound 0.01 µM, first compound 3.16 µM
[12] = second compound 0.01 µM, first compound 10 µM
[13] = second compound 0.0316 µM, first compound 0.0316 µM
[14] = second compound 0.0316 µM, first compound 0.1 µM
[15] = second compound 0.0316 µM, first compound 0.316 µM
[16] = second compound 0.0316 µM, first compound 1 µM
[17] = second compound 0.0316 µM, first compound 3.16 µM
[18] = second compound 0.0316 µM, first compound 10 µM
[19] = second compound 0.1 µM, first compound 0.0316 µM
[20] = second compound 0.1 µM, first compound 0.1 µM
[21] = second compound 0.1 µM, first compound 0.316 µM
[22] = second compound 0.1 µM, first compound 1 µM
[23] = second compound 0.1 µM, first compound 3.16 µM
[24] = second compound 0.1 µM, first compound 10 µM
[25] = second compound 0.316 µM, first compound 0.0316 µM
[26] = second compound 0.316 µM, first compound 0.1 µM
[27] = second compound 0.316 µM, first compound 0.316 µM
[28] = second compound 0.316 µM, first compound 1 µM
[29] = second compound 0.316 µM, first compound 3.16 µM
[30] = second compound 0.316 µM, first compound 10 µM
[31] = second compound 1 µM, first compound 0.0316 µM
[32] = second compound 1 µM, first compound 0.1 µM
[33] = second compound 1 µM, first compound 0.316 µM
[34] = second compound 1 µM, first compound 1 µM
[35] = second compound 1 µM, first compound 3.16 µM
[36] = second compound 1 µM, first compound 10 µM
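Note: spheroids exposed to compounds for seven days before viability read.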
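Throughout, for viability, T/C: luminescence used as a proxy for viable cell amount; percent viability relative to DMSO vehicle control as 100%.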

IC50 (second compound 0.00316 µM): 1450 nM
IC50 (second compound 0.01 µM): 859 nM
IC50 (second compound 0.0316 µM): 641 nM
IC50 (second compound 0.1 µM): 347 nM
IC50 (second compound 0.316 µM): 169 nM
IC50 (second compound 1 µM): 77.2 nM
Structure (SMILES): C#Cc1c(F)ccc2cc(O)cc(-c3ncc4c(N5CC6CCC(C5)N6)nc(OCC56CCCN5CC(F)C6)nc4c3F)c12 (stereo unspecified) + CC(Nc1ccc2c(c1)OCCn1cc(N3C(=O)OCC3C(F)F)nc1-2)C(N)=O
viability, T/C [1]: 86%
viability, T/C [2]: 81.2%
viability, T/C [3]: 67.4%
viability, T/C [4]: 52%
viability, T/C [5]: 45%
viability, T/C [6]: 34.9%
viability, T/C [7]: 89%
viability, T/C [8]: 80.6%
viability, T/C [9]: 57.7%
viability, T/C [10]: 52.6%
viability, T/C [11]: 39.8%
viability, T/C [12]: 41.1%
viability, T/C [13]: 87.5%
viability, T/C [14]: 83.2%
viability, T/C [15]: 59.6%
viability, T/C [16]: 42.5%
viability, T/C [17]: 44.2%
viability, T/C [18]: 30%
viability, T/C [19]: 75%
viability, T/C [20]: 69.6%
viability, T/C [21]: 50.2%
viability, T/C [22]: 35.9%
viability, T/C [23]: 32%
viability, T/C [24]: 26.1%
viability, T/C [25]: 72.2%
viability, T/C [26]: 57.1%
viability, T/C [27]: 40.8%
viability, T/C [28]: 33.7%
viability, T/C [29]: 29.6%
viability, T/C [30]: 21.6%
viability, T/C [31]: 56.8%
viability, T/C [32]: 48.8%
viability, T/C [33]: 39%
viability, T/C [34]: 29.3%
viability, T/C [35]: 26.4%
viability, T/C [36]: 17.9%

IC50 (second compound 0.00316 µM): > 10000 nM
IC50 (second compound 0.01 µM): > 10000 nM
IC50 (second compound 0.0316 µM): > 10000 nM
IC50 (second compound 0.1 µM): > 10000 nM
IC50 (second compound 0.316 µM): > 10000 nM
IC50 (second compound 1 µM): > 10000 nM
Structure (SMILES): CC(Cn1ccc(-c2ccc(C#N)c(Cl)c2)n1)NC(=O)c1cc(C(C)O)[nH]n1 (stereo unspecified) + CC(Nc1ccc2c(c1)OCCn1cc(N3C(=O)OCC3C(F)F)nc1-2)C(N)=O
viability, T/C [1]: 86%
viability, T/C [2]: 108%
viability, T/C [3]: 98.5%
viability, T/C [4]: 112%
viability, T/C [5]: 96%
viability, T/C [6]: 97.4%
viability, T/C [7]: 92.6%
viability, T/C [8]: 98.4%
viability, T/C [9]: 110%
viability, T/C [10]: 100%
viability, T/C [11]: 96%
viability, T/C [12]: 87.1%
viability, T/C [13]: 96.8%
viability, T/C [14]: 101%
viability, T/C [15]: 89.7%
viability, T/C [16]: 93.7%
viability, T/C [17]: 93.8%
viability, T/C [18]: 79.2%
viability, T/C [19]: 78%
viability, T/C [20]: 79.4%
viability, T/C [21]: 89.1%
viability, T/C [22]: 82.7%
viability, T/C [23]: 97.1%
viability, T/C [24]: 76.7%
viability, T/C [25]: 70.2%
viability, T/C [26]: 73.2%
viability, T/C [27]: 66.7%
viability, T/C [28]: 73.5%
viability, T/C [29]: 66.7%
viability, T/C [30]: 72%
viability, T/C [31]: 55%
viability, T/C [32]: 55.1%
viability, T/C [33]: 68.9%
viability, T/C [34]: 63.1%
viability, T/C [35]: 58%
viability, T/C [36]: 58.6%

IC50 (second compound 0.00316 µM): > 10000 nM
IC50 (second compound 0.01 µM): > 10000 nM
IC50 (second compound 0.0316 µM): > 10000 nM
IC50 (second compound 0.1 µM): > 10000 nM
IC50 (second compound 0.316 µM): < 31.6 nM
IC50 (second compound 1 µM): < 31.6 nM
Structure (SMILES): C[C@@H](NC(=O)c1ncnc(N)c1Cl)c1ncc(C(=O)Nc2cc(C(F)(F)F)c(Cl)cn2)s1 + COc1c(OCCCN2CCOCC2)ccc2c3n(c(=NC(=O)c4cnc(N)nc4)nc12)CCN3
viability, T/C [1]: 89.7%
viability, T/C [2]: 88%
viability, T/C [3]: 95.1%
viability, T/C [4]: 112%
viability, T/C [5]: 131%
viability, T/C [6]: 136%
viability, T/C [7]: 96.6%
viability, T/C [8]: 87%
viability, T/C [9]: 96.2%
viability, T/C [10]: 116%
viability, T/C [11]: 98%
viability, T/C [12]: 109%
viability, T/C [13]: 94.3%
viability, T/C [14]: 78.9%
viability, T/C [15]: 86.7%
viability, T/C [16]: 81.9%
viability, T/C [17]: 92.7%
viability, T/C [18]: 77.8%
viability, T/C [19]: 68.7%
viability, T/C [20]: 57.1%
viability, T/C [21]: 69.2%
viability, T/C [22]: 67.7%
viability, T/C [23]: 71.3%
viability, T/C [24]: 58.7%
viability, T/C [25]: 42%
viability, T/C [26]: 36.2%
viability, T/C [27]: 35.7%
viability, T/C [28]: 52.9%
viability, T/C [29]: 43.3%
viability, T/C [30]: 37.3%
viability, T/C [31]: 22.3%
viability, T/C [32]: 16.1%
viability, T/C [33]: 19.3%
viability, T/C [34]: 21.7%
viability, T/C [35]: 29%
viability, T/C [36]: 22.6%
